# Patent publication US20220370453A1 (Storm Therapeutics Ltd, priority 2019, published 2022)
# Target: T1, BCDIN3D (Homo sapiens, UniProt Q7Z5W3)
# T1 sequence (Q7Z5W3 1-292): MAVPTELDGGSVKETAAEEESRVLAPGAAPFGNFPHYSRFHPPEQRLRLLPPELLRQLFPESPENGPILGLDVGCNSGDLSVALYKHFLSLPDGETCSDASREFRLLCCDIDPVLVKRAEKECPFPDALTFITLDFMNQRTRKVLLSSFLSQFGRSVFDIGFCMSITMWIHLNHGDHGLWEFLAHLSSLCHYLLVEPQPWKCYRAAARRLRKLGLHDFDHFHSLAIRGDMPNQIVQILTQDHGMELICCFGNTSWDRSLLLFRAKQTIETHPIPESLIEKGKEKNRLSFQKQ
# Assay: BCDIN3D IC50 RFMS (RapidFire) assay with mini-helix
# Format: biochemical
# Details: mini-helix 0.2 μM and SAM 6 μM as substrates, 25 nM enzyme, 1 hr at 37° C.
# Method: The following General Methods details the assay conditions for the Biological assays.
# BCDIN3D IC50 RFMS Assay with Mini-Helix
# The enzymatic assay was performed in a 384-well polypropylene plate in assay buffer with 25 mM Tris pH 8.0, 10 mM DTT, 1 mM EDTA, 0.03% BSA in a final assay volume of 20 μL. The enzyme with a final concentration of 25 nM was pre-incubated with the respective compound at 1% DMSO final assay concentration over 10 min at room temperature. The reaction was initiated by addition of 0.2 μM final assay concentration of mini-helix and 6 μM final concentration of SAM as substrates. After a 1 hr incubation at 37° C., the reaction was terminated with 40 μL of stop solution of 7.5% trichloroactetic acid in water containing 112.5 nM D4-SAH and 30 nM ^13C10-SAH used as internal standards. The SAH product concentrations as well as both internal standards were analyzed by a RapidFire High Throughput Mass Spectrometry System (Agilent Technologies, Santa Clara, Calif.) using an AP14000 triple quadrupole mass spectrometer (AB Sciex Framingham, Mass.).
row,Structure (SMILES),IC50 [µM]
1,"[2H]C([2H])([2H])n1ncc2c(NC(C)(C)C)nc(NCC(N)c3ccccc3F)nc21 (stereo in doubt) [Compound 7.16, N6-[(2R)-2-amino-2-(2-fluorophenyl)ethyl]-N4-tert-butyl-1-(trideuteriomethyl)pyrazolo[3,4-d]pyrimidine-4,6-diamine]",0.069
2,"Cn1ncc2c(Nc3cccc(C(F)(F)F)c3)nc(NCCN)nc21 [Compound 1.02, N6-(2-aminoethyl)-1-methyl-N4-[3-(trifluoromethyl)phenyl]-1H-pyrazolo[3,4-d]pyrimidine-4,6-diamine]",4.27
3,"COc1ccc(CCNc2nc(NCCN)nc3c2cnn3C)cn1 [Compound 1.07, N6-(2-aminoethyl)-N4-[2-(6-methoxypyridin-3-yl)ethyl]-1-methyl-1H-pyrazolo[3,4-d]pyrimidine-4,6-diamine]",4.38
4,"COc1ccc(CCNc2nc(NCCN)nc3c2cnn3C)cc1Cl [Compound 1.08, N6-(2-aminoethyl)-N4-[2-(3-chloro-4-methoxyphenyl)ethyl]-1-methyl-1H-pyrazolo[3,4-d]pyrimidine-4,6-diamine]",2.8
5,"Cn1ncc2c(NCCc3ccc4c(c3)OCO4)nc(NCCN)nc21 [Compound 1.09, N6-(2-aminoethyl)-N4-[2-(2H-1,3-benzodioxol-5-yl)ethyl]-1-methyl-1H-pyrazolo[3,4-d]pyrimidine-4,6-diamine]",4.07
6,"Cn1ncc2c(NCc3ccc4occc4c3)nc(NCCN)nc21 [Compound 1.10, N6-(2-aminoethyl)-N4-[(1-benzofuran-5-yl)methyl]-1-methyl-1H-pyrazolo[3,4-d]pyrimidine-4,6-diamine]",5.49
7,"Cn1ncc2c(NCC3CCN(S(=O)(=O)c4ccccc4)CC3)nc(NCCN)nc21 [Compound 1.12, N6-(2-aminoethyl)-N4-{[1-(benzenesulfonyl)piperidin-4-yl]methyl}-1-methyl-1H-pyrazolo[3,4-d]pyrimidine-4,6-diamine]",9.52
8,"Cn1ncc2c(NCc3ccc4nc[nH]c4c3)nc(NCCN)nc21 [Compound 1.13, N6-(2-aminoethyl)-N4-[(1H-1,3-benzodiazol-5-yl)methyl]-1-methyl-1H-pyrazolo[3,4-d]pyrimidine-4,6-diamine]",7.8
9,"Cn1ncc2c(NCc3ccc(F)c(Cl)c3)nc(NCCN)nc21 [Compound 1.17, N6-(2-aminoethyl)-N4-[(3-chloro-4-fluorophenyl)methyl]-1-methyl-1H-pyrazolo[3,4-d]pyrimidine-4,6-diamine]",6.9
10,"Cn1ncc2c(NCc3ccc(Cl)cc3F)nc(NCCN)nc21 [Compound 1.18, N6-(2-aminoethyl)-N4-[(4-chloro-2-fluorophenyl)methyl]-1-methyl-1H-pyrazolo[3,4-d]pyrimidine-4,6-diamine]",4.75
11,"Cn1ncc2c(NCc3ccc(F)cc3F)nc(NCCN)nc21 [Compound 1.19, N6-(2-aminoethyl)-N4-[(2,4-difluorophenyl)methyl]-1-methyl-1H-pyrazolo[3,4-d]pyrimidine-4,6-diamine]",6.38
12,"COc1cc(Cl)cc(CNc2nc(NCCN)nc3c2cnn3C)c1 [Compound 1.20, N6-(2-aminoethyl)-N4-[(3-chloro-5-methoxyphenyl)methyl]-1-methyl-1H-pyrazolo[3,4-d]pyrimidine-4,6-diamine]",3.53
13,"COc1ccc(CNc2nc(NCCN)nc3c2c(C)nn3C)cc1Cl [Compound 1.29, N6-(2-aminoethyl)-N4-[(3-chloro-4-methoxyphenyl)methyl]-1,3-dimethyl-1H-pyrazolo[3,4-d]pyrimidine-4,6-diamine]",2.9
14,"COc1ccc(C(=O)N2CCC(CNc3nc(NCCN)nc4c3cnn4C)CC2)cc1Cl [Compound 1.37, N6-(2-aminoethyl)-N4-{[1-(3-chloro-4-methoxybenzoyl)piperidin-4-yl]methyl}-1-methyl-1H-pyrazolo[3,4-d]pyrimidine-4,6-diamine]",7.62
15,"COc1ccc(CNc2nc(NCCN)nc3c2cnn3C)cc1 [Compound 1.39, N6-(2-aminoethyl)-N4-[(4-methoxyphenyl)methyl]-1-methyl-1H-pyrazolo[3,4-d]pyrimidine-4,6-diamine]",6.91
16,"Cn1ncc2c(NCC3CCN(C(=O)OC(C)(C)C)CC3)nc(NCCN)nc21 [Compound 1.40, tert-butyl 4-[({6-[(2-aminoethyl)amino]-1-methyl-1H-pyrazolo[3,4-d]pyrimidin-4-yl}amino)methyl]piperidine-1-carboxylate]",6.19
17,"Cn1ncc2c(NCC3CCN(Cc4ccccc4)CC3)nc(NCCN)nc21 [Compound 1.41, N6-(2-aminoethyl)-N4-[(1-benzylpiperidin-4-yl)methyl]-1-methyl-1H-pyrazolo[3,4-d]pyrimidine-4,6-diamine]",21.1
18,"Cn1ncc2c(NCC3CCN(C(=O)c4ccccc4)CC3)nc(NCCN)nc21 [Compound 1.42, N6-(2-aminoethyl)-N4-[(1-benzoylpiperidin-4-yl)methyl]-1-methyl-1H-pyrazolo[3,4-d]pyrimidine-4,6-diamine]",5.76

# Same assay, conditions: mini-helix substrate 0.2 μM, SAM 6 μM, 25 nM enzyme
row,Structure (SMILES),IC50 [µM]
1,"Cn1ncc2c(NC34CC(C3)C4)nc(NCC3(N)CC3)nc21 [Compound 2.38, 6-N-[(1-aminocyclopropyl)methyl]-4-N-(3-bicyclo[1.1.1]pentanyl)-1-methylpyrazolo[3,4-d]pyrimidine-4,6-diamine]",1.71
2,"Cc1ccc(CNc2nc(NC(C)CN)nc3c2cnn3C)cc1Cl (centres unmarked) [Compound 3.02, 6-N-(1-aminopropan-2-yl)-4-N-[(3-chloro-4-methylphenyl)methyl]-1-methylpyrazolo[3,4-d]pyrimidine-4,6-diamine]",6.56
3,"Cc1ccc(CNc2nc(NC[C@H](C)N)nc3c2cnn3C)cc1Cl [Compound 3.03, 6-N-[(2S)-2-aminopropyl]-4-N-[(3-chloro-4-methylphenyl)methyl]-1-methylpyrazolo[3,4-d]pyrimidine-4,6-diamine]",5.71
4,"Cc1ccc(CNc2nc(NC[C@H]3CCCN3)nc3c2cnn3C)cc1Cl [Compound 3.17, 4-N-[(3-chloro-4-methylphenyl)methyl]-1-methyl-6-N-[[(2R)-pyrrolidin-2-yl]methyl]pyrazolo[3,4-d]pyrimidine-4,6-diamine]",9.57
5,"[2H]C([2H])([2H])Nc1nc(NCC(N)c2ccccc2)nc2c1cnn2C (centres unmarked) [Compound 4.37, 6-N-(2-amino-2-phenylethyl)-1-methyl-4-N-(trideuteriomethyl)pyrazolo[3,4-d]pyrimidine-4,6-diamine]",8.01
6,"Cn1ncc2c(NC(C)(C)CCO)nc(NC[C@H](N)c3ccccc3)nc21 [Compound 4.70, 3-[[6-[[(2R)-2-amino-2-phenyl-ethyl]amino]-1-methyl-pyrazolo[3,4-d]pyrimidin-4-yl]amino]-3-methyl-butan-1-ol]",1.3
7,"Cn1ncc2c(NC(C)(C)C)nc(NCC(N)c3ccc(F)cc3)nc21 (centres unmarked) [Compound 5.30, N6-[2-amino-2-(4-fluorophenyl)ethyl]-N4-tert-butyl-1-methyl-1H-pyrazolo[3,4-d]pyrimidine-4,6-diamine]",0.37
8,"Cn1ncc2c(NC(C)(C)C)nc(NCC(N)c3ccc(F)c(F)c3)nc21 (centres unmarked) [Compound 5.31, N6-[2-amino-2-(3,4-difluorophenyl)ethyl]-N4-tert-butyl-1-methyl-pyrazlo[3,4-d]pyrimidine-4,6-diamine]",0.35
